# Laboratory results published in patent US20170135948A1, “COMPOSITION COMPRISING EXTRACT OF AUTUMN SOYBEAN LEAVES” (AMOREPACIFIC CORPORATION, priority 2014, published 2017).
# Experiments:
# [1] = test system: collagenase; assay: Collagenase production inhibition test in human fibroblasts; assay type: cell-based; conditions: 10^−4 M tocopherol or EGCG, 24 hours, untreated group = 100
# Experimental: The activity of inhibiting collagenase production of the soybean leaf extracts of stages VC, V2, V4, R2, R4, R6 and R7 prepared in Example 1 was compared with those of tocopherol (Comparative Example 1) and EGCG (Comparative Example 2). Tocopherol and EGCG are known to prevent skin aging by regenerating epidermal cells.
# Human fibroblasts (Cascade Biologics, Portland, Oreg., USA) were added to a 96-well microtiter plate containing Dulbecco's modified Eagle's medium (DMEM) supplemented with 2.5 wt % fetal bovine serum, at 5,000 cells/well, and cultured to about 90% confluence. Then, after culturing in serum-free DMEM for 24 hours and treating with 100 μg/mL of each of the soybean leaf extracts of stages VC, V2, V4, R2, R4, R6 and R7 prepared in Example 1 or 10^−4 M tocopherol or EGCG (Sigma Aldrich) for 24 hours, the cell culture was harvested.
# The production of collagenase in the cell culture harvested was measured using a collagenase measuring system (Amersham Pharmacia, USA). […]
# A absorbance of a cell culture obtained without treating with the composition was used as a control group. That is to say, the expression level of collagenase in the group treated with the test substance was calculated relative to that of the untreated group as 100.
# Collagenase expression level (%)=Absorbance of group treated with test substance/Absorbance of control group×100 [Equation 1]
# [2] = Irritation test (pricking, flushing) on the face of 15 panels sensitive to irritation; assay type: in vivo
# Experimental: Retinol as a known antiaging substance and the autumn soybean leaf (stage R7) extract as an active ingredient of the present disclosure were tested comparatively for irritation by 15 panels who are sensitive to irritation such as pricking, flushing, etc.
# The panels were asked to apply 0.5 mL of retinol (purchased from Sigma) or the autumn soybean leaf extract obtained in Example 1 (1 mg/mL) randomly on each face and score between 0 and 3.0 points with 0.1-point intervals.
# 1.1-2.0: Moderate irritation.
# 2.1-3.0: Severe irritation.
# [3] = Antioxidative activity test based on DPPH reduction; assay type: biochemical; conditions: sample concentration at which absorbance at 540 nm decreased by 50%; 100 μM DPPH, 37° C., 30 minutes
# Experimental: In order to investigate the antioxidative activity of the soybean leaf extracts of stages VC, V2, V4, R2, R4, R6 and R7 prepared in Example 1, the effect of inhibiting the oxidation of the free radical 1,1-diphenyl-2-picrylhydrazyl (DPPH) was compared by measuring the change in absorbance caused by reduction of DPPH.
# 190 μL of a 100 μM (in ethanol) DPPH solution and each of the soybean leaf extracts of stages VC, V2, V4, R2, R4, R6 and R7 obtained in Example 1 and 10,000 ppm Trolox (positive control), a synthetic antioxidant are prepared at a concentration of 10,000 ppm, diluted to a final concentration of 500 ppm, 250 ppm, 125 ppm, 62.5 ppm, 31.25 ppm or 15.63 ppm. 10 μL of each of them were mixed to prepare a reaction solution, and absorbance was measured at 540 nm after incubation at 37° C. for 30 minutes. IC50 means the sample concentration when the absorbance was decreased by 50% due to the added sample.
# [4] = score 0 to 3.0 points, 0.5 mL applied on face, extract 1 mg/mL, 15 panels
structure (smiles),measurement,setting,value
"O=C(O[C@@H]1Cc2c(O)cc(O)cc2O[C@@H]1c1cc(O)c(O)c(O)c1)c1cc(O)c(O)c(O)c1 [EGCG (Comparative Example 2), EGCG]",Collagenase expression level (%),[1],61%
CC1=C(/C=C/C(C)=C/C=C/C(C)=C/CO)C(C)(C)CCC1 [Retinol],Irritation such as pricking and flushing (in words),"[2]; grade by the scoring standard, 0.5 mL applied on face",slight irritation
same,Mean (irritation score),"[2]; mean of pricking and flushing scores, 0 to 3.0 points",0.65
same,Flushing (irritation score),[2]; [4],0.42
same,Pricking (irritation score),[2]; [4],0.87
"Cc1c(C)c2c(c(C)c1O)CC[C@@](C)(CCC[C@H](C)CCC[C@H](C)CCCC(C)C)O2 [Tocopherol (Comparative Example 1), tocopherol]",Collagenase expression level (%),[1],74%
"Cc1c(C)c2c(c(C)c1O)CCC(C)(C(=O)O)O2 (stereo not shown) [Trolox (positive control), Trolox]",IC50 (ppm),[3],38 ppm
